Article PMC11235165, “Delocalized quinolinium-macrocyclic peptides, an atypical chemotype for CNS penetration” (Science Advances, 2024)
Like-named read-outs stand apart in the source and are kept apart here.

What was measured:
[1] = design: method as in PMID 26352530; settings: cited from earlier work
Caco-2 cells = test system: Caco-2 cells; design: method as in PMID 26352530; settings: cited from earlier work
CypD = CypD (Homo sapiens, UniProt P30405); assay: Fluorescence polarization cyclophilin D binding assay; settings: Table S7; focused SAR set; read-out: CypD Ki
CypD, sequence (P30405 30-207): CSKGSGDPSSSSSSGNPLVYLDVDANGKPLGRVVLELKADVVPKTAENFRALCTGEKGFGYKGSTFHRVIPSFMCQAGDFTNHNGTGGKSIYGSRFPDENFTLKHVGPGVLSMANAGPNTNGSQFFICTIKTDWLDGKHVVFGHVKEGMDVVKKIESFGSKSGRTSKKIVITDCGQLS
Protocol: (§1) This was determined using a fluorescence polarization assay ([12]).
Fluorescence Polarization assay.
(§2) Briefly, titration of a single probe concentration
measure binding affinities.

[2] = Brain tissue binding (fraction unbound); format: in vitro ADME; settings: read-out: Brain tissue (fu)
From the text: Table 1. Key data for lead optimization. SD, standard deviation of the mean; SE, standard error of the mean; fu, fraction unbound; ND, not determined. | column: Brain tissue (fu)

Cyclophilin A (CypA) = Cyclophilin A (CypA) (Homo sapiens, UniProt P62937); assay: Fluorescence polarization cyclophilin A binding assay; settings: Table S7; focused SAR set; read-out: CypA Ki
Cyclophilin A (CypA), sequence (P62937 whole entry): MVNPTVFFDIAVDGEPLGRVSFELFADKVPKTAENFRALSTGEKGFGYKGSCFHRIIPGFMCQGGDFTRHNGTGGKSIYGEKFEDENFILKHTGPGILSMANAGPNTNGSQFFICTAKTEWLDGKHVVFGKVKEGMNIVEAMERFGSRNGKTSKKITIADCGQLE
Protocol: as §1
Fluorescence Polarization assay.
as §2
measure binding affinities.
FP -probe. Enzyme, inhibitor and
(ph7.4)) supplemented with 1 mM PMSF.

in vivo = settings: ABH, mouse, ip, 10 mg/kg; for level at 24 h: Brain concentrations at 24 hours
Protocol: (§3) The remaining five compounds were evaluated for plasma and brain levels in a pharmacokinetic experiment in mice.
Pharmacokinetic analysis.
(Cyprotex UK) using LCMSMS.

[3] = mouse, in vivo; for Cl_obs: ip, 10 mg/kg
Protocol: as §3
Pharmacokinetic analysis.
(Cyprotex UK) using LCMSMS.

[4] = Hepatocyte clearance (mouse); format: in vitro ADME; settings: mouse hepatocytes
[5] = mouse, in vivo; for AUC(0-inf) / AUC(0-t) / half-life: ip, 10 mg/kg
Protocol: as §3
Pharmacokinetic analysis.
(Cyprotex UK) using LCMSMS.

[6] = Hepatocyte clearance (human); format: in vitro ADME; settings: human hepatocytes
hERG = hERG (Homo sapiens, UniProt Q12809); assay: hERG inhibition; format: biochemical; settings: for inhibition at 25 µM: hERG (% inhibition at 25 μM)
hERG, sequence (Q12809 whole entry): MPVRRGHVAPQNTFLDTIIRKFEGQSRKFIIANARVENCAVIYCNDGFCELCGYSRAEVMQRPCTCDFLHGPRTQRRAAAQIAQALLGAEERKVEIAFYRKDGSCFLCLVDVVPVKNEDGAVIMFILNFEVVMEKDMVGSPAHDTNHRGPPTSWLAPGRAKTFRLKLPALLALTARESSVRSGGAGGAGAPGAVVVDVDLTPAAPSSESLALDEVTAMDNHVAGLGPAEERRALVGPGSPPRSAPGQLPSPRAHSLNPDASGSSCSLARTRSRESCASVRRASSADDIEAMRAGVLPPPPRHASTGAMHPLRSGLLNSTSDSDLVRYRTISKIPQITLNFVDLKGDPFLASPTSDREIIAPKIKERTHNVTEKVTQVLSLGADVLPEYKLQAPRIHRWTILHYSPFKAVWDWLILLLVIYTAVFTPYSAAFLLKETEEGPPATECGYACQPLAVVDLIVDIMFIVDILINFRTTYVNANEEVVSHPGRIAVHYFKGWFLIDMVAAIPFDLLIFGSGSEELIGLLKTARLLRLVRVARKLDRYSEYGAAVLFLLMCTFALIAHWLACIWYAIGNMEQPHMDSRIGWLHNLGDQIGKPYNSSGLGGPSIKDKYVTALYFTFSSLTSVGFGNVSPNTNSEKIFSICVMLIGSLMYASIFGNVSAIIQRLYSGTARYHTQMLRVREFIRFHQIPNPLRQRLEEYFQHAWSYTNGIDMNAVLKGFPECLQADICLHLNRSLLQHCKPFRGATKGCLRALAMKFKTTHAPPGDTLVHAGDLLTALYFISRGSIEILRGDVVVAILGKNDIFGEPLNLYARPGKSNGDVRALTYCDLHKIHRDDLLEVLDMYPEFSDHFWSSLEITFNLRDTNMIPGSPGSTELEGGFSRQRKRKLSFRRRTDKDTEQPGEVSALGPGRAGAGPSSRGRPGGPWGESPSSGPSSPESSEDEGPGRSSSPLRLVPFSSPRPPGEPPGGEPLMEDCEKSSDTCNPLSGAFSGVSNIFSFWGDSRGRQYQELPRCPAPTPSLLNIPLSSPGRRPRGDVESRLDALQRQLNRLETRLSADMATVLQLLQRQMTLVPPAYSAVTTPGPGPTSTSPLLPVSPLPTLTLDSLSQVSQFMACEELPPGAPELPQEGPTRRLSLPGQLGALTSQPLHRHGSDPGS

[7] = Plasma protein binding (fraction unbound); format: in vitro ADME; settings: read-out: Plasma protein (fu)
[8] = test system: CRFK and CRFK-TRIMCypA cells; assay: MTT viability of CRFK and CRFK-TRIMCypA cells; format: cell-based, Feline; settings: 48 hours, up to 20 μM
Protocol: Assay for cellular CypA selectivity
bromide (MTT) assay (Sigma) was performed.
100 μL solubilisation solution (10 % SDS

[9] = test system: mitochondrial permeability transition pore (mPTP); assay: Calcium retention capacity (CRC) assay in isolated liver mitochondria; format: biochemical, rat
TRIM-CypA = biological target: T1, TRIM-CypA (Homo sapiens, UniProt P62937+Q6PIZ9); format: cell-based; settings: CRFK-TRIMCypA cells; 0.5-20 μM; 48 hours; GFP-positive cells by flow cytometry
T1 construct: expressed in transfected cells; host or cells: CRFK (Crandell-Rees Feline Kidney) cells transduced with MLV EXN-TRIM-CypA vector, G418 selected
T1 sequence (P62937 2-165, one chain of several): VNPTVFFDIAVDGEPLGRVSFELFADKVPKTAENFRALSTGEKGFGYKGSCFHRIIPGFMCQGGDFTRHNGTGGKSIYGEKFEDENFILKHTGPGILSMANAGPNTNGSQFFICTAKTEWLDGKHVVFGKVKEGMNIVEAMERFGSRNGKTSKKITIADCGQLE

[10] = Pharmacokinetic study, plasma and brain levels by LC-MS/MS;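 also: ABH mice, four per group, dosed intraperitoneally, plasma and brain taken at set times after euthanasia, drug levels quantified by LC-MS/MS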
Protocol: as §3
Pharmacokinetic analysis.
(Cyprotex UK) using LCMSMS.

| Structure (SMILES) | fraction unbound [2] | level at time molar at 24 h (in vivo) | level at 24 h (in vivo) | Cl_obs [3] | hepatocyte CLint [4] | AUC(0-inf) [5] | AUC(0-t) [5] | half-life [5] | hepatocyte CLint [6] | inhibition at 25 µM (hERG) | fraction unbound [7] | also measured |
| --- | --- | --- | --- | --- | --- | --- | --- | --- | --- | --- | --- | --- |
| COc1ccc2cc3[n+](cc2c1OC)CCc1cc2c(cc1-3)OCO2 [Berberine, berberine] | – | – | – | – | – | – | – | – | – | – | – | PAMPA permeability [1]: 1 to 1.2 ×10⁻⁶ cm/s; Caco-2 cell line permeability AP-BL (Caco-2 cells; AP-BL): 2.59 ×10⁻⁶ cm/s; Caco-2 cell line permeability BL-AP (Caco-2 cells; BL-AP): 25.16 ×10⁻⁶ cm/s |
| CC[C@@H]1NC(=O)[C@H]([C@H](O)[C@H](C)C/C=C/CCC[n+]2ccc(N3CCOCC3)c3ccc(C(F)(F)F)cc32)N(C)C(=O)[C@H](C(C)C)N(C)C(=O)[C@H](CC(C)C)N(C)C(=O)[C@H](CC(C)C)N(C)C(=O)[C@@H](C)NC(=O)[C@H](C)NC(=O)[C@H](CC(C)C)N(C)C(=O)[C@H](C(C)C)NC(=O)[C@H](CC(C)C)N(C)C(=O)CN(C)C1=O [JP1-138] | 0.00084 | 391 nM | 592 ng/mL | 4.43 × 10^−05 (mg/kg)/(ng/ml).hour | 9.61 µL/min/1e6 cells | 226 µg·h/mL | 216 µg·h/mL | 5.81 h | 7.62 µL/min/1e6 cells | 37.7% | – | Ki (CypD): 64 ± 16 nM; Ki (Cyclophilin A (CypA)): 42 nM; Brain AUC as % of the plasma AUC [3]: about 2%; AUC [5]: 198 µg·h/mL |
| CC[C@@H]1NC(=O)[C@H]([C@H](O)[C@H](C)C/C=C/CCC[n+]2ccc(N3CCCCC3)c3ccc(C(F)(F)F)cc32)N(C)C(=O)[C@H](C(C)C)N(C)C(=O)[C@H](CC(C)C)N(C)C(=O)[C@H](CC(C)C)N(C)C(=O)[C@@H](C)NC(=O)[C@H](C)NC(=O)[C@H](CC(C)C)N(C)C(=O)[C@H](C(C)C)NC(=O)[C@H](CC(C)C)N(C)C(=O)CN(C)C1=O [JP1-164] | 0.01 | 380 nM | 574 ng/mL | 7.09 × 10^−05 (mg/kg)/(ng/ml).hour | 5.89 µL/min/1e6 cells | 141 µg·h/mL | 134 µg·h/mL | 5.68 h | 22.4 µL/min/1e6 cells | 14.2% | 0.69 | – |
| CC[C@@H]1NC(=O)[C@H]([C@H](O)[C@H](C)C/C=C/CCC[n+]2ccc(N(C)C)c3ccc(C(F)(F)F)cc32)N(C)C(=O)[C@H](C(C)C)N(C)C(=O)[C@H](CC(C)C)N(C)C(=O)[C@H](CC(C)C)N(C)C(=O)[C@@H](C)NC(=O)[C@H](C)NC(=O)[C@H](CC(C)C)N(C)C(=O)[C@H](C(C)C)NC(=O)[C@H](CC(C)C)N(C)C(=O)CN(C)C1=O [JW76] | – | – | – | – | 6.81 µL/min/1e6 cells | – | – | – | 5.62 µL/min/1e6 cells | 16.3% | 0.0039 | Toxicity to non-restricting and restricting cells (MTT) [8]: not toxic at any concentration tested; CRC inhibition % ([9]; Table S4 / Fig. S2, rat liver mitochondria, 500 nM, (Treated-NonTreated)/NonTreated)*100): 54.7%; CRC % inhibition at 10 nM ([9]; Table S7, 10 nM): 32.9%; Rescue of HIV-1 infectivity of restricting (TRIM-CypA) cells (TRIM-CypA): rescued infectivity poorly and only at 20 μM; level at 1 h ([10]; ABH, mouse, brain, ip, Brain ng/mL, mice, 1 h): 668 ng/mL; level at 4 h ([10]; ABH, mouse, brain, ip, Brain ng/mL, mice, 4 h): 545 ng/mL; level at 1 h ([10]; ABH, mouse, plasma, ip, Plasma (ng/mL), mice, 1 h): 50800 ng/mL; Detectability in the brain at 48 hours ([10]; longer-term pharmacokinetic study, 48 hours): not detectable; Brain ([10]; mice, 1 h): 668 ng/mL; AUC ([10]; mouse, in vivo): 67 µg·h/mL; hERG activity (hERG): little hERG activity |
